Laboratory results taken from US10905761B2, “Use of a lipopeptide or lipoprotein as an adjuvant in therapeutic or prophylactic vaccinations” (HELMHOLTZ-ZENTRUM FUER INFEKTIONSFORSCHUNG GMBH, priority 2002, dated 2021).
No end group written: not given here.

How the values were obtained:
[1] = system: BALB/c (H-2d) mice; experiment: Oral immunization with β-galactosidase and MALP-2 as mucosal adjuvant (serum antibody ELISA, Example 9); format: in vivo; details: 100 μg β-gal with 2 μg MALP-2, days 1, 14, 21, 31, serum day 45
Procedure: FIG. 12: Humoral responses stimulated after vaccination with MALP-2 as adjuvant in a dose 2 μg per animal per immunization. The mice were immunized orally either with β-galactosidase alone (100 μg/dose) or with β-galactosidase mixed with MALP-2 (2 μg/dose) on […]. On day 45 after the first immunization, serum samples were obtained, and the titers of the β-galactosidase-specific antibodies were determined with an ELISA.
Six- to eight-week old female BALB/c (H-2d) mice were purchased from Harlan Winkelmann GmbH (Borchen, Germany) and treated in accordance with local guidelines and directives of the European Community. Groups each of 5 mice were immunized on days 1, 14, 21 and 31 with 100 μg of β-gal (Boehringer, Mannheim, Germany) either alone or with 2 μg of synthetic MALP-2 as adjuvant by the oral route (dose 25 μl). On day 45, serum samples were taken and stored at −20° C. until β-gal-specific antibodies were determined. 96-well Nunc-Immuno MaxiSorp® assay plates (Nunc, Roskilde, Denmark) were coated with 100 μl of β-gal at 5 μg/ml in 0.05 M carbonate buffer (pH 8.2) per well. […] The final value titers have been expressed as the reciprocal logarithmic log2 values of the last dilution which resulted, after incubation for 30 minutes, in an optical density at 405 nm of 0.1 units above the values for the negative controls.

[2] = system: BALB/c (H-2d) mice; format: in vivo; details: mice immunized i.n.; β-gal restimulation
[3] = system: BALB/c (H-2d) mice; experiment: Kinetics of β-gal-specific IgG responses in sera of mice immunized i.n. or i.p. (Example 4); format: in vivo
Procedure: Groups of animals (n=5) were immunized either i.n. (A) or i.p. (B) with 50 μg of β-gal ( ), β-gal plus 10 μg of CTB ( ), β-gal plus 0.5 μg of MALP-2 ( ) or pure buffer solution ( ). The days of the immunizations (day 0, 14 and 21) are marked by arrows. The results are shown as the reciprocal log2 of the geometric endpoint titer, and the SEM […] is indicated by means of vertical lines.
Six- to eight-week old female BALB/c (H-2d) mice were purchased from Harlan Winkelmann GmbH (Borchen, Germany) and treated in accordance with local and EU directives. Groups each of 5 mice were immunized on day 1, 14 and 21 either with 40 μg of pure β-galactosidase (Boehringer, Mannheim, Germany) with admixture of 0.5 μg of synthetic MALP-2 or 10 μg of cholera toxin B subunit (CTB; ICN Biomedicals Inc., Ohio) as standard adjuvant. For intranasal administration (i.n.), 10 μl were administered into each nostril, while for the i.p. injection β-galactosidase was resuspended with or without MALP-2 in 400, 100 or 100 μl of PBS. Serum samples were taken at various times (day 0, 13, 20 and 30) and stored at −20° C. until the β-galactosidase-specific antibodies were determined. Nunc-Immuno MaxiSorp assay plates with 96 wells (Nunc, Roskilde, Denmark) were coated with 100 μl of β-gal (Boehringer, Mannheim, Germany) with 5 μg/ml in 0.05 M […] (pH 8.2) per well. Serial two-fold dilutions of the sera or lavages in PBS with 1% BSA and 0.05% Tween-20 were added (100 μl/well) and the plates were incubated at 37° C. for 24 hours. After rinsing, biotinylated γ chain-specific goat anti-mouse IgG (Sigma Chemie, Deisenhofen, Germany) was added, and the plates were incubated at 37° C. for a further hour. After rinsing four times, 100 μl of peroxidase-conjugated streptavidin (Pharmingen) were added to the […], and the plates were incubated at 37° C. for 30 minutes. After rinsing four times, the reactions were developed by means of ABTS in 0.1 M citrate-phosphate buffer (pH 4.35) which contained 0.01% H2O2.

[4] = system: primary dendritic cells from the bone marrow of BALB/c mice; experiment: In vitro stimulation of primary dendritic cells; […]; format: cell-based
[5] = system: BALB/c (H-2d) mice; experiment: Serum IgE level after immunization (capture ELISA, Example 6); format: in vivo; details: MALP-2 i.p. or via the mucous membranes; day 28
Procedure: Mice were immunized intraperitoneally (i.p.) and intranasally (i.n.) either with pure β-galactosidase (40 μg), exclusively MALP-2 or β-galactosidase mixed with MALP-2 (0.5 μg) on days 0, 7 and 14. On day 28 after the first immunization, serum samples were obtained, and the IgE levels were determined by means of a capture ELISA. The results are shown as IgE concentrations (ng/ml).
To determine the total IgE concentration in the serum of immunized and control animals, serial dilutions of the appropriate samples were incubated in microtiter plates which had previously been coated with anti-mouse IgE (100 μl/well) as capture antibody. After blocking with PBS with 1% BSA and 0.05% Tween-20 at room temperature for two hours, a 1:100 dilution of the serum in PBS-Tween was added (100 μl/well) and the plates were incubated at 37° C. for one hour. After rinsing, biotinylated anti-mouse IgE was added and the plates were incubated at 37° C. for a further hour. After rinsing four times, 100 μl of peroxidase-conjugated streptavidin (Pharmingen) were put in the wells, and the plates were incubated at 37° C. for 30 minutes. After rinsing four times, the reactions were developed by means of ABTS in 0.1 M citrate-phosphate buffer (pH 4.35) and a content of 0.01% H2O2. Serial dilutions of purified mouse IgE were used to produce a standard plot.

Substance: S-[2,3-bispalmitoyloxypropyl]cysteinyl-GNNDESNISFKEK ({S‑(2,3-bispalmitoyloxypropyl)Cys}-GNNDESNISFKEK) [MALP-2]
- serum immune responses to β-gal after oral immunization [1]: Immune responses to β-gal were observed
- IL-10 content in supernatants of spleen cells stimulated in vitro [2]: 2.2 ng/mL
- kinetics and overall efficacy of antibody responses compared with 10 μg CTB ([3]; 0.5 μg MALP-2 versus 10 μg CTB, i.n.): very similar
- increase of β-galactosidase-specific IgG serum titers ([3]; i.p., 0.5 μg per animal per dose, versus pure β-galactosidase): 100 fold
- titers of specific IgG at the end of the immunization protocol ([3]; β-galactosidase with 0.5 μg MALP-2 i.n.): above 500,000
- titers of specific IgG in serum after a single dose ([3]; β-galactosidase with 0.5 μg MALP-2 i.n., single dose): > 60,000
- effect on expression of costimulating molecule CD80 in dendritic cells ([4]; 5 ng/ml MALP-2, 12 and 24 hours): slight, if present at all
- expression of CD40 and costimulating molecule CD86 in dendritic cells ([4]; 5 ng/ml MALP-2, 12 and 24 hours, versus LPS positive control): not increased
- activation of primary dendritic cells ([4]; 5 ng/ml MALP-2, compared with LPS 10 ng/ml): only a very weak activation
- up regulation of CD40, CD80 and CD86 in dendritic cells ([4]; 10 ng/ml LPS or 5 ng/ml MALP-2): only a weak effect, or none
- serum IgE content [5]: does not lead to an increase
